These results are taken from patent US20100120717A1, “KINASE INHIBITORS” (priority 2006, published 2010).

For orientation: IC50 means the concentration needed to halve the response being measured.

The target in the test is Aurora B/INCENP (Homo sapiens, UniProt Q96GD4). In words: Determination of inhibition of AIK: Aurora B/INCENP Direct Fluorescence Polarization (IMAP) assay. The test is classed as biochemical. The conditions noted are these: 10 uM ATP, 0.8 nM Aurora B/INCENP, 45 min at room temperature; read-out: IC50 of Exemplified Compounds Against AIK B. How it is done: Detection of the reaction product is performed by addition of Progressive IMAP binding reagent (Molecular Devices). Reaction product may be determined quantitatively by FP using an Analyst HT plate reader (Molecular Devices) with an excitation wavelength at 485 nm and emission at 530 nm and using a Fluorescein 505 dichroic mirror.
The assay reaction may be initiated as follows: 2 ul of (3×) 300 nM Fl-Peptide/30 uM ATP was added to each well of the plate, followed by the addition of 2 ul of (3×) inhibitor (2 fold serial dilutions for 11 data points for each inhibitor) containing 15% DMSO. Two microliters of (3×) 2.4 nM AuroraB/INCENP solution may be added to initiate the reaction (final enzyme concentration was 0.8 nM for Aurora B/INCENP). The reaction mixture may then be incubated at room temperature for 45 min, and quenched and developed by addition of 20 ul of 1 to 400 diluted Progressive IMAP binding reagent in 1× proprietary Progressive IMAP binding buffer A. Fluorescence polarization readings of the resulting reaction mixtures may be measured after a 60-minute incubation at room temperature.
IC50 values may be calculated by non-linear curve fitting of the compound concentrations and fluorescent polarization values to the standard IC50 equation.
For orientation: Polarisation of emitted light reports the rotation of a fluorescent probe.

SMILES strings stand for the structures.

Aurora B/INCENP, sequence (Q96GD4 whole entry): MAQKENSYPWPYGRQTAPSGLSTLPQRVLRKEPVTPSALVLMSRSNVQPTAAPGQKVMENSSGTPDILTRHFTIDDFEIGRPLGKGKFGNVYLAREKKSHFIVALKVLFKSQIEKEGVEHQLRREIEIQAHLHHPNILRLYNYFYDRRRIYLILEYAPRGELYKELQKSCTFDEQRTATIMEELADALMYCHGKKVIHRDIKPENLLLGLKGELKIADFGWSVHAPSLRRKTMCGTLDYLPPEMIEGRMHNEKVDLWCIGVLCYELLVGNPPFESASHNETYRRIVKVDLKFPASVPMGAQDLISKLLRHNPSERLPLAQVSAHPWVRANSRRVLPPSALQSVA
Aurora B/INCENP, sequence (Q9NQS7 whole entry partner): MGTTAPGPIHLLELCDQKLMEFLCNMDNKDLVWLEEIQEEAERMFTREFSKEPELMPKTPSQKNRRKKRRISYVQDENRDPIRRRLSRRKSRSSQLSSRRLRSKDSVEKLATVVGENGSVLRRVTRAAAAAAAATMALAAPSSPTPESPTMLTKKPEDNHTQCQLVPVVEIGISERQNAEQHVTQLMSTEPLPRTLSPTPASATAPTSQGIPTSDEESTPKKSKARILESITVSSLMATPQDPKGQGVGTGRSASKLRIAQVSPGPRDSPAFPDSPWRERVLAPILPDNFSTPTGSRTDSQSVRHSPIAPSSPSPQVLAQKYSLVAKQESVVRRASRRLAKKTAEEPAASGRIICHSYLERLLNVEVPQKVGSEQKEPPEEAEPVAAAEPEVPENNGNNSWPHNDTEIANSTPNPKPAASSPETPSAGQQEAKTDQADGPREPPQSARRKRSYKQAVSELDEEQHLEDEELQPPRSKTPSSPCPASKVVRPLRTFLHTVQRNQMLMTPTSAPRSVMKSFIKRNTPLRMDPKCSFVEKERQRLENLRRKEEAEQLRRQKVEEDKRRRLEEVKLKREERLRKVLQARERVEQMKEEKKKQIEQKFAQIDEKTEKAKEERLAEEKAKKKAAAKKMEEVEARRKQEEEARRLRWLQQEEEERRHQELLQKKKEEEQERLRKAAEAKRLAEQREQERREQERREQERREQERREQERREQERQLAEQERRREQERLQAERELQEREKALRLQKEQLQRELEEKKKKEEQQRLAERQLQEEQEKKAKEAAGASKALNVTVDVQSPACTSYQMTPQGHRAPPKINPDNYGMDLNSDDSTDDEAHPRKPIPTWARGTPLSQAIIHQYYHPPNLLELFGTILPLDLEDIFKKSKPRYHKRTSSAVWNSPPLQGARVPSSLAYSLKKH

Turning to `CCNS(=O)(=O)c1cccc(-c2ccc(OCCCN(C)C)c3[nH]c4ncc(C)cc4c23)c1` [Compound 295, 3-(8-(3-(dimethylamino)propoxy)-3-methyl-9H-pyrido[2,3-b]indol-5-yl)-N-ethylbenzenesulfonamide], the IC50 is 6 to 10 nM. On to `CCS(=O)(=O)c1cccc(-c2ccc(OCCCN(C)CCOP(=O)(O)O)c3[nH]c4ncc(C)cc4c23)c1` [Compound 308, 2-((3-(5-(3-(ethylsulfonyl)phenyl)-3-methyl-9H-pyrido[2,3-b]indol-8-yloxy)propyl)(methyl)amino)ethyl dihydrogen phosphate], for which the 50% inhibitory concentration (IC50) is not above 5 nM. As for `Cc1cnc2[nH]c3c(OC[C@H](CN(C)C)OP(=O)(O)O)ccc(-c4cccc(S(=O)(=O)C5CC5)c4)c3c2c1` [Compound 314, (S)-1-(5-(3-(cyclopropylsulfonyl)phenyl)-3-methyl-9H-pyrido[2,3-b]indol-8-yloxy)-3-(dimethylamino)propan-2-yl dihydrogen phosphate], the IC50 was not above 5 nM. As for `Cc1cnc2[nH]c3c(OC[C@@H](CN(C)C)OP(=O)(O)O)ccc(-c4cccc(S(=O)(=O)C5CC5)c4)c3c2c1` [Compound 315, (R)-1-(5-(3-(cyclopropylsulfonyl)phenyl)-3-methyl-9H-pyrido[2,3-b]indol-8-yloxy)-3-(dimethylamino)propan-2-yl dihydrogen phosphate], the figure is not above 5 nM.
